In general, IC50 refers to the concentration that inhibits the measured activity by half.

Structures are written as SMILES. Activity calls are given as the source filed them. The calls are words filed in the database; no cut-off is given here.

The record followed here is ChEMBL document CHEMBL6083271 (J Med Chem, 2024).

The test system of series [1] is MV4-11. Put plainly: Upregulation of PUMA mRNA level in human MV4-11 cells at 300 nM by qRT-PCR analysis. Type of series: functional, cell-based. A general note: Real-time PCR tracks product formation cycle by cycle.
Series [2] deals with RS4-11. As to the kind of experiment: Antiproliferative activity against human RS4;11 cells assessed as inhibition of cell growth measured after 4 days by WST-8 assay. Type of series: functional, cell-based. The conditions noted are these: RS4-11, 96 h. In general terms: Tetrazolium assays rely on reduction of a dye to a coloured formazan, in cell work by metabolically active cells.

For series [3], the system named is RS4-11. Put plainly: Upregulation of MDM2 mRNA level in human RS4;11 cells at 300 nM measured after 3 hrs by qRT-PCR analysis. It counts as functional, cell-based.
For series [4], the system named is MV4-11. Put plainly: Antiproliferative activity against human MV4-11 cells assessed as inhibition of cell growth measured after 4 days in presence of lenalidomide by WST-8 assay. It counts as functional, cell-based. The conditions noted are these: time 4.0 day.
The test system of series [5] is MV4-11. Put plainly: Antiproliferative activity against human MV4-11 cells assessed as inhibition of cell growth measured after 4 days by WST-8 assay. The conditions noted are these: MV4-11, 96 h. Type of series: functional, cell-based.
In series [6] the test system is RS4-11. Put plainly: Antiproliferative activity against human RS4;11 cells assessed as inhibition of cell growth measured after 4 days in presence of lenalidomide by WST-8 assay. It counts as functional, cell-based. The note with it: time 4.0 day.
Series [7] concerns RS4-11. Put plainly: Upregulation of PUMA mRNA level in human RS4;11 cells at 300 nM measured after 3 hrs by qRT-PCR analysis. Type of series: functional, cell-based.
Series [8] has as its system MV4-11. As to the kind of experiment: Upregulation of p21 mRNA level in human MV4-11 cells at 300 nM by qRT-PCR analysis. Type of series: functional, cell-based.
Series [9] has as its system RS4-11. Put plainly: Effect of p53 mRNA level in human RS4;11 cells at 300 nM by qRT-PCR analysis. It counts as functional, cell-based.
The subject of series [10] is MV4-11. As to the kind of experiment: Upregulation of MDM2 mRNA level in human MV4-11 cells at 300 nM by qRT-PCR analysis. Type of series: functional, cell-based.
Series [11] deals with RS4-11. Put plainly: Upregulation of p21 mRNA level in human RS4;11 cells at 300 nM measured after 3 hrs by qRT-PCR analysis. Type of series: functional, cell-based.
For series [12], the system named is RS4-11. As to the kind of experiment: Antiproliferative activity against human RS4;11 cells harbouring p53 mutant assessed as inhibition of cell growth measured after 4 days by WST-8 assay. It counts as functional, cell-based. The conditions noted are these: RS4-11, 96 h.
Series [13] can be described thus: Toxicity in SCID mouse at 50 mg/kg, iv. The conditions noted are these: in vivo. It counts as organism-based.
Series [14] deals with RS4-11. Put plainly: Antiproliferative activity against human RS4;11 cells harbouring p53 wild type assessed as inhibition of cell growth measured after 4 days by WST-8 assay. It counts as functional, cell-based. The note with it: RS4-11, 96 h.
Series [15] has as its system RS4-11. As to the kind of experiment: Antitumor activity against human RS4;11 cells xenografted in SCID mouse model assessed as tumor regression at 50 mg/kg, iv qd administered every other for 2 weeks by caliper method relative to control. Type of series: functional.
The test system of series [16] is RS4-11. As to the kind of experiment: Antitumor activity against human RS4;11 cells xenografted in female NOD-SCID mouse model assessed as tumor regression at 50 mg/kg, iv administered every other day for 2 weeks by vernier method relative to control. Type of series: functional. Background: In xenograft studies the graft and the host belong to different species.

Series [17] is described as follows: Toxicity in female NOD-SCID mouse assessed as effect on body weight at 50 mg/kg, iv qd. The note with it: in vivo. Type of series: organism-based.

On to `O=C(N[C@H]1CC[C@H](C(=O)O)CC1)[C@@H]1NC2(CCCCC2)[C@@]2(C(=O)Nc3cc(Cl)ccc32)[C@H]1c1cccc(Cl)c1F`, for which the Activity entry in series [1] was “Active; Less Effective Than Md-265”; in series [3], “Active; Least Effect”; in series [4], “Active; Compound Showed Minimal Effect”; in [6], “Active; Compound Showed Modest Inhibition Of Cell Growth”; in series [7], “Active; Least Effect”; in [8], “Active; Less Effective Than Md-265”. The Activity result in series [10] is on record as “Active; Less Effective Than Md-265”; in series [11], “Active; Least Effect”. The figures for the IC50 in series [2] and in [5] were 179 nM and 93 nM, respectively. In series [9], the outcome was inactive.

For `O=C1CCC(N2Cc3c(NCc4cn(CCCNC(=O)c5ccc(NC(=O)[C@@H]6NC7(CCCCC7)[C@@]7(C(=O)Nc8cc(Cl)ccc87)[C@H]6c6cccc(Cl)c6F)cc5)cn4)cccc3C2=O)C(=O)N1` (stereo partly specified), the IC50 was 180 nM in series [12] and 6 nM in [14]. For the same molecule, the Activity result in series [13] was “Toxic”.

Consider `O=C1CCC(N2Cc3c(C#CCCCNC(=O)c4ccc(NC(=O)[C@@H]5NC6(CCCCC6)[C@@]6(C(=O)Nc7cc(Cl)ccc76)[C@H]5c5cccc(Cl)c5F)cc4)cccc3C2=O)C(=O)N1` (stereo partly specified), for which the IC50 in series [12] is over 1000 nM; in series [2], 2 nM; in [5], 7 nM; in series [14] it was 4 nM. For the same molecule, the Activity in [15] was 100%; in [16], 100%; in series [17] it was “Non-toxic”.
